Literature values in patent US20070111953A1, “Compositions to improve the bioavailability of polymethoxyflavones and tocotrienols for treatment of cardiovascular disease” (KGK Synergize, Inc., priority 2005, published 2007).

Tested on: acetylated LDL metabolism

## COc1ccc(-c2cc(=O)c3c(OC)c(OC)c(OC)c(OC)c3o2)cc1OC [nobiletin]
  Inhibition of acetylated LDL metabolism: 50-72%
